Source: patent publication US20240391875A1, “ISOQUINOLINONES AND QUINOLINONES AS MODULATORS OF POLRMT” (Pretzel Therapeutics, Inc., priority 2021, published 2024)

Target: POLRMT (Homo sapiens, UniProt O00411)
Test: homogeneous TR-FRET assay of mitochondrial transcription (inhibition of POLRMT)
Format: biochemical
Details: isoquinolinone compounds (Table 1)
Procedure: The inhibitory activity of the compounds of the present invention against POLRMT were determined by assays based on Bergbrede, T., et al., “An adaptable high-throughput technology enabling the identification of specific transcription modulators,” SLAC Discov., 22, 378-386 (2017).
The ability of some compounds of the present invention to inhibit POLRMT were determined in a homogeneous TR-FRET Assay using high-throughput screening in a 384-well plate format. This method is used to monitor the activity of mitochondrial transcription through measurement of its product, a 407 bp long RNA transcript. Detection of the product is facilitated by hybridization of two DNA-oligonucleotide probes to specific and adjacent sequences within the RNA product sequence. Upon annealing of the probes, two fluorophores are coupled directly to an acceptor nucleotide probe (ATTO647, 5′), or introduced via a coupled streptavidin with a biotinylated donor nucleotide probe (Europium cryptate) that is brought into sufficient proximity to serve as a fluorescence-donor-acceptor pair. Thus, a FRET signal at 665 nm is generated upon excitation at 340 nm.
Proteins used as transcription factors (POLRMT: NP_005026.3, TFAM: NP_003192.1, TFB2M: NP_071761.1) are diluted from their stocks to working concentrations of 1 μM, 20 μM and 4 μM respectively, in a dilution buffer containing 20 mM Tris-HCl (pH 8.0), 200 mM NaCl, 10% (v/v) glycerol, 1 mM Dithiothreitol (DTT), 0.5 mM EDTA.
DNA template is a pUC18 plasmid with the mitochondrial light strand promotor sequence (1-477) cloned between HindIII and BamHI sites. The DNA template is restriction linearized proximal to the promotor 3′-end (pUC-LSP).
The reaction mixture (10 uL) containing 7.5 nM POLRMT, 15 nM of TFB2M, 30 nM of TFAM, 0.5 nM of DNA template and 500 μM nucleotide triphosphate mix (NTPs) in a reaction buffer (containing 10 mM Tris-HCl (pH 7.5), 10 mM MgCl2, 40 mM NaCl, 10 mM DTT, 0.005% (w/v) Tween-20, 160 units/ml Rnase inhibitor and 0.1 mg/mL BSA) are dispensed to compounds in microplates, using a Thermo Multidrop® dispenser, and incubated at 37° C. in a VWR INCU-Line incubator for 60 minutes after mixing. No nucleotide triphosphate mix is added to negative control samples. Microplates with compounds to be tested in the assay are prepared from 10 mM compound stocks in 100% DMSO, equal amounts of DMSO without any compound are added to positive control and negative control samples.
During the incubation, a mix of the detection reagents is prepared in a buffer such that the enzymatic reaction is terminated due to chelating of Mg-ions and increased ionic strength, containing 50 mM Tris-HCl (pH 7.5), 700 mM NaCl, 20 mM EDTA, and 0.010% (w/v) Tween-20. Europium-streptavidin is pre-incubated with a 200-fold molar excess of a random sequence oligonucleotide to block unspecific binding of oligo, for two hours at ambient temperature in the dark. Afterwards, the blocked Europium-streptavidin is kept on ice until use.
At the end of the enzymatic reaction time, 5 μL detection oligo mix in the detection buffer is added, and assay plates are mixed and kept at ambient temperature for one hour, protected from light. The concentration of the Acceptor nucleotide oligo (e.g., ATTO647N-5′-[…]-3′) and Donor nucleotide oligo (e.g., bio-5′-AACACATCTCT(-bio)GCCAAACCCCA-bio-3′) in each assay well is 1 nM, and 3 nM, respectively.
After incubation with oligo mix, 5 μL of pre-blocked Europium-streptavidin reagent is dispensed to each assay well, assay plates are again mixed and kept at ambient temperature for one hour, protected from light.
The generated signal is measured with BMG Pherastar microtiter plate reader with a TRF light unit, using excitation at 340 nm, an integration time of 200 μs, and a delay time of 100 μs, before detection at 620 nm and 665 nm. The ratio of donor- and acceptor-fluorescence is used as a measure of the generated transcript product (i.e. enzymatic activity).

Sequence of POLRMT (O00411 42-1230): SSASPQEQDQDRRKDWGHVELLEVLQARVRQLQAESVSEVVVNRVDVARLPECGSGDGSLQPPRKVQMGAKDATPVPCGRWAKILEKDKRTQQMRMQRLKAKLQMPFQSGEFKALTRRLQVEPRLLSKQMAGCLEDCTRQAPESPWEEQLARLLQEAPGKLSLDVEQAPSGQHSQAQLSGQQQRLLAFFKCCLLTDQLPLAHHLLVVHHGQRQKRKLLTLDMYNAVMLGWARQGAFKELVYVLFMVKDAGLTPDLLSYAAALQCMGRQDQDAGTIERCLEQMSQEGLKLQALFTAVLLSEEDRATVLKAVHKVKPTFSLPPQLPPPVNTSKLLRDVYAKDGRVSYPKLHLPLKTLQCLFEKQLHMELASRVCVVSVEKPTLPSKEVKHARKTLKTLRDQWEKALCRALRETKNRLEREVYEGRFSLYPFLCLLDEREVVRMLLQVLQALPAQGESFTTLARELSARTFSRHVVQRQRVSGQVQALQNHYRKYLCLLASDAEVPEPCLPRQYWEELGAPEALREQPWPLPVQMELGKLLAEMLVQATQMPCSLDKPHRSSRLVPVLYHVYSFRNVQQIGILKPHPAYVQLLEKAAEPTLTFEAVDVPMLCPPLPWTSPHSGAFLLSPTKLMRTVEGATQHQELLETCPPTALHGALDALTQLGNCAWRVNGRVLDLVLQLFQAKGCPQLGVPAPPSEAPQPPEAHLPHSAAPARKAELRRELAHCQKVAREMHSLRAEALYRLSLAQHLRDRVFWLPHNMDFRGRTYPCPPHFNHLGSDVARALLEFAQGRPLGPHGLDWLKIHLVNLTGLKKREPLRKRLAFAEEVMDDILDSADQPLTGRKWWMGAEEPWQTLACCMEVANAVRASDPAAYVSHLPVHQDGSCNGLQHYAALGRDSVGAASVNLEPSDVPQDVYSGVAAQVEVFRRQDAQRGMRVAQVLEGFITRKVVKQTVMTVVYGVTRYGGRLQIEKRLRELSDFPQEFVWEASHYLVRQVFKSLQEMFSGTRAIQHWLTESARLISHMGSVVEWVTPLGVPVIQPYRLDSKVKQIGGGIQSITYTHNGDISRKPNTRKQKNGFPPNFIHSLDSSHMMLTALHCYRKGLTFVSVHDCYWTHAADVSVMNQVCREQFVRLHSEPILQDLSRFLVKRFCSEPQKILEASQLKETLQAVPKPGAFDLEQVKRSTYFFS

IC50 [µM]	SMILES
> 100	Cc1ccccc1-c1c[nH]c(=O)c2cc(NC(=O)C3CCN(C)CC3)ccc12 [Example 43, 1-methyl-N-(1-oxo-4-(o-tolyl)-1,2-dihydroisoquinolin-7-yl)piperidine-4-carboxamide]
2	COCc1ccc2c(-c3ccccc3C)c[nH]c(=O)c2c1 [Example 44, 7-(methoxymethyl)-4-(o-tolyl)isoquinolin-1(2H)-one]
> 100	CC(=O)N(C)Cc1ccc2c(-c3ccccc3C)c[nH]c(=O)c2c1 [Example 45, N-methyl-N-((1-oxo-4-(o-tolyl)-1,2-dihydroisoquinolin-7-yl)methyl)acetamide]
2	Cc1ccccc1-c1c[nH]c(=O)c2cc(NC(C)C(=O)N3CCOCC3)ccc12 (centres unmarked) [Example 46]
11	Cc1ccccc1-c1c[nH]c(=O)c2cc(NC(C)C(=O)N(C)C)ccc12 (centres unmarked) [Example 47]
0.2	Cc1ccccc1-c1c[nH]c(=O)c2cc(-c3ccccc3)ccc12 [Example 48, 7-phenyl-4-(o-tolyl)isoquinolin-1(2H)-one]
6	COCC(Oc1ccc2c(-c3ccccc3C)c[nH]c(=O)c2c1)C(=O)O (centres unmarked) [Example 51, 3-methoxy-2-((1-oxo-4-(o-tolyl)-1,2-dihydroisoquinolin-7-yl)oxy)propanoic acid]
25	C[C@H](Oc1ccc2c(-c3ccc(F)cc3Cl)c[nH]c(=O)c2c1)C(=O)N1CCC[C@H](C(=O)O)C1 [Example 59, (S)-1-((S)-2-((4-(2-chloro-4-fluorophenyl)-1-oxo-1,2-dihydroisoquinolin-7-yl)oxy)propanoyl)piperidine-3-carboxylic acid]
39	C[C@H](Oc1ccc2c(-c3ccc(F)cc3Cl)c[nH]c(=O)c2c1)C(=O)N1CCC(C(=O)O)CC1 [Example 60, (S)-1-(2-((4-(2-chloro-4-fluorophenyl)-1-oxo-1,2-dihydroisoquinolin-7-yl)oxy)propanoyl)piperidine-4-carboxylic acid]
0.4	Cc1ccccc1-c1c[nH]c(=O)c2cc(OC(C)C(F)(F)F)ccc12 (centres unmarked) [Example 61, 4-(o-tolyl)-7-((1,1,1-trifluoropropan-2-yl)oxy)isoquinolin-1(2H)-one]
0.06	C[C@@H](Oc1ccc2c(-c3ccc(F)cc3Cl)c[nH]c(=O)c2c1)C(=O)N1CCC[C@H](C(=O)O)C1 [Example 62, (S)-1-((R)-2-((4-(2-chloro-4-fluorophenyl)-1-oxo-1,2-dihydroisoquinolin-7-yl)oxy)propanoyl)piperidine-3-carboxylic acid]
3	Cc1ccccc1-c1c[nH]c(=O)c2cc(OCC(N)=O)ccc12 [Example 63, 2-((1-oxo-4-(o-tolyl)-1,2-dihydroisoquinolin-7-yl)oxy)acetamide]

More lines, now with the values behind:

SMILES	IC50 [µM]
CC(=O)N1CC[C@H](Oc2ccc3c(-c4ccccc4C)c[nH]c(=O)c3c2)C1 [Example 17, (S)-7-((1-acetylpyrrolidin-3-yl)oxy)-4-(o-tolyl)isoquinolin-1(2H)-one]	82
Cc1ccccc1-c1c[nH]c(=O)c2cc(C(=O)N3CCCC3)ccc12 [Example 19, 7-(pyrrolidine-1-carbonyl)-4-(o-tolyl)isoquinolin-1(2H)-one]	> 100
CNC(=O)[C@@H](C)Oc1ccc2c(-c3ccccc3C)c[nH]c(=O)c2c1 [Example 20, (R)—N-methyl-2-((1-oxo-4-(o-tolyl)-1,2-dihydroisoquinolin-7-yl)oxy)propanamide]	1
Cc1ccccc1-c1c[nH]c(=O)c2cc(O[C@H](C)C(=O)N3CCC[C@H](C(=O)O)C3)ccc12 [Example 22, (S)-1-((R)-2-((1-oxo-4-(o-tolyl)-1,2-dihydroisoquinolin-7-yl)oxy)propanoyl)piperidine-3-carboxylic acid]	0.04
Cc1ccccc1-c1c[nH]c(=O)c2cc(C(=O)N(C)C)ccc12 [Example 23, N,N-dimethyl-1-oxo-4-(o-tolyl)-1,2-dihydroisoquinoline-7-carboxamide]	75
Cc1ccccc1-c1c[nH]c(=O)c2cc(O[C@H](C)C(=O)N3CCC(C(=O)O)CC3)ccc12 [Example 24, (R)-1-(2-((1-oxo-4-(o-tolyl)-1,2-dihydroisoquinolin-7-yl)oxy)propanoyl)piperidine-4-carboxylic acid]	0.05
CNC(=O)[C@H](C)Oc1ccc2c(-c3ccccc3C)c[nH]c(=O)c2c1 [Example 28, (S)—N-methyl-2-((1-oxo-4-(o-tolyl)-1,2-dihydroisoquinolin-7-yl)oxy)propenamide]	36
Cc1ccccc1-c1c[nH]c(=O)c2cc(NC(=O)C(C)C)ccc12 [Example 30, N-(1-oxo-4-(o-tolyl)-1,2-dihydroisoquinolin-7-yl)isobutyramide]	2
CC(=O)Nc1ccc2c(-c3ccccc3C)c[nH]c(=O)c2c1 [Example 31, N-(1-oxo-4-(o-tolyl)-1,2-dihydroisoquinolin-7-yl)acetamide]	8
COCC(=O)Nc1ccc2c(-c3ccccc3C)c[nH]c(=O)c2c1 [Example 32, 2-methoxy-N-(1-oxo-4-(o-tolyl)-1,2-dihydroisoquinolin-7-yl)acetamide]	22
CC(=O)N1CCC(C(=O)Nc2ccc3c(-c4ccccc4C)c[nH]c(=O)c3c2)CC1 [Example 33, 1-acetyl-N-(1-oxo-4-(o-tolyl)-1,2-dihydroisoquinolin-7-yl)piperidine-4-carboxamide]	> 100
CC(C)Oc1ccc2c(-c3ccccc3C#N)c[nH]c(=O)c2c1 [Example 34, 2-(7-isopropoxy-1-oxo-1,2-dihydroisoquinolin-4-yl)benzonitrile]	14
Cc1ccccc1-c1c[nH]c(=O)c2cc(O[C@H](C)C(=O)N3CC[C@H](C(=O)O)C3)ccc12 [Example 35, (S)-1-((R)-2-((1-oxo-4-(o-tolyl)-1,2-dihydroisoquinolin-7-yl)oxy)propanoyl)pyrrolidine-3-carboxylic acid]	0.4
Cc1ccccc1-c1c[nH]c(=O)c2cc(OCC#N)ccc12 [Example 36, 2-((1-oxo-4-(o-tolyl)-1,2-dihydroisoquinolin-7-yl)oxy)acetonitrile]	0.2
N#CCOc1ccc2c(-c3ccc(F)cc3Cl)c[nH]c(=O)c2c1 [Example 37, 2-((4-(2-chloro-4-fluorophenyl)-1-oxo-1,2-dihydroisoquinolin-7-yl)oxy)acetonitrile]	0.9
Cc1ccccc1-c1c[nH]c(=O)c2cc(CN)ccc12 [Example 38, 7-(aminomethyl)-4-(o-tolyl)isoquinolin-1(2H)-one]	> 100
CC(=O)NCc1ccc2c(-c3ccccc3C)c[nH]c(=O)c2c1 [Example 39, N-((1-oxo-4-(o-tolyl)-1,2-dihydroisoquinolin-7-yl)methyl)acetamide]	> 100
CCOC(=O)C(C)Cc1ccc2c(-c3ccccc3C)c[nH]c(=O)c2c1 (centres unmarked) [Example 40, ethyl 2-methyl-3-(1-oxo-4-(o-tolyl)-1,2-dihydroisoquinolin-7-yl)propanoate]	1
Cc1ccccc1-c1c[nH]c(=O)c2cc(CC(C)C(=O)N3CCCCC3)ccc12 (centres unmarked) [Example 41, 7-(2-methyl-3-oxo-3-(piperidin-1-yl)propyl)-4-(o-tolyl)isoquinolin-1(2H)-one]	1
CC(=O)N1CCCC(Oc2ccc3c(-c4ccccc4C)c[nH]c(=O)c3c2)C1 (centres unmarked) [Example 42, 7-((1-acetylpiperidin-3-yl)oxy)-4-(o-tolyl)isoquinolin-1(2H)-one]	7
